Test system: CD1 female mouse brain lipidome
Experiment: Brain-region lipid levels (HPLC/MS/MS lipidomics) 2 h after single i.p. 3 mg/kg CP 55,940 vs vehicle
Type: in vivo
Experimental: The Bloomington Institutional Animal Care and Use Committee of Indiana University reviewed and approved the animal procedures. Female mice from the CD1 strain were utilized to match our study examining THC’s effects on the brain lipidome ([Leishman et al., 2018]). Mice were given a single i.p. injection of either 3 mg/kg CP or 1:1:18 cremophor:ethanol:saline vehicle (please refer to the section “3 mg/kg CP Is Relevant for Synthetic Cannabinoid Abuse and Has Stronger Effects on the Female Mouse Brain Lipidome During Adolescence” for a justification of dose and use of female mice). Three different age groups were given injections: PND 35 and PND 50 adolescents, and adult mice (PND 113). At least eight mice in each age group received CP and at least eight received vehicle. Matching the THC study time course ([Leishman et al., 2018]), mice were sacrificed via rapid decapitation 2 h after injection. Brains were immediately removed and flash-frozen in liquid nitrogen, and then stored at -80°C until dissections were performed. Brains were dissected on an ice-cold dissection plate into the following regions: STR, HIPP, CER, THAL, CTX, HYP, MID, and STEM. These abbreviations for these brain areas will be used exclusively when discussing the results generated by these specific dissections. Each dissected area was immediately placed in liquid nitrogen and then stored at -80°C until used for lipid extraction.
Tissue extracts were performed as previously described ([Bradshaw et al., 2006]; [Stuart et al., 2013]; [Raboune et al., 2014]; [Leishman et al., 2016a],[b], [2017], [2018]). First, samples were shock frozen in liquid nitrogen, weighed, and transferred to a centrifuge tube. The mass of the largest sample was multiplied by 50 to determine how many milliliters of HPLC-grade methanol (Fisher, Fair Lawn, NJ, United States) to add. Then, samples were spiked with 500 pmol deuterium-labeled NAGly (d8NAGly; Cayman Chemical, Ann Arbor, MI, United States). Samples were placed on ice in darkness for 2 h then individually homogenized and centrifuged at 19,000 × g for 20 min at 20°C. Supernatants were diluted with HPLC water (purified in house) to make a solution of 75% water, 25% supernatant. Lipids were partially purified on C18 solid phase extraction columns (Agilent, Palo Alto, CA, United States). A series of four elutions with 1.5 mL of 60%, 75%, 85%, and 100% methanol were collected ([Stuart et al., 2013]; [Leishman et al., 2016a],[b], [2018]).
As previously described ([Bradshaw et al., 2006]; [Tan et al., 2006]; [Smoum et al., 2010]; [Stuart et al., 2013]; [Tortoriello et al., 2013]; [Raboune et al., 2014]; [Leishman et al., 2016a],[b], [2017], [2018]), samples were analyzed using an Applied Biosystems API 3000 triple quadrupole mass spectrometer with electrospray ionization (Foster City, CA, United States). Using an Agilent XDB-C18 reversed phase analytical column and optimized mobile phase gradients, 20 μL from each elution were chromatographed. Two Shimadzu 10ADvp pumps (Columbia, MD, United States) provided the pressure for gradient elution. Mobile phase A: 20% methanol, 80% water (v/v) and 1 mM ammonium acetate (Sigma, St. Louis, MO, United States). Mobile phase B: 100% methanol, 1 mM ammonium acetate. Every method run began with 0% mobile phase B, reached 100% mobile phase B flowing at 0.2 mL/min, and gradually returned to 0% mobile phase B.
This screening library will be referred to as the lipidome when discussing data from this study. HPLC/MS/MS data were analyzed using Analyst software (Applied Biosystems) ([Bradshaw et al., 2006]; [Tan et al., 2006]; [Stuart et al., 2013]; [Tortoriello et al., 2013]; [Raboune et al., 2014]; [Leishman et al., 2016a],[b], [2017], [2018]). Chromatograms (Supplementary Figure 3) were generated by determining the retention time of analytes from the analytical column with a [M-1] or [M+1] parent peak and a fragmentation peak corresponding to the programmed values. […]

[1] = adult midbrain, 3mg/kg CP 55,940, p .049
[2] = adult midbrain, 3mg/kg CP 55,940, p .055
[3] = adult midbrain, 3mg/kg CP 55,940, p .060
[4] = adult midbrain, 3mg/kg CP 55,940, p .063
[5] = adult midbrain, 3mg/kg CP 55,940, p .073
[6] = adult midbrain, 3mg/kg CP 55,940, p .087
[7] = adult midbrain, 3mg/kg CP 55,940, p .098
[8] = brainstem, PND35, 3 mg/kg CP 55,940 vs Veh
[9] = brainstem, PND35 female mice, 3mg/kg CP 55,940, mean
[10] = brainstem, PND 50, 3 mg/kg CP 55,940

## CCCCCCC(C)(C)c1ccc([C@@H]2C[C@H](O)CC[C@H]2CCCO)c(O)c1 [CP 55,940]
[1]
  PGE2 Direction (relative to Veh): ↑
  PGE2 Magnitude (x Veh level): 1.17
[2]
  6-ketoPGF1α Direction (relative to Veh): ↑
  6-ketoPGF1α Magnitude (x Veh level): 1.29
[3]
  N-arachidonoyl ethanolamine, Direction (relative to Veh): ↓
  N-arachidonoyl ethanolamine, Magnitude (x Veh level): 0.78
[4]
  N-linoleoyl glycine Direction (relative to Veh): ↓
  N-linoleoyl glycine Magnitude (x Veh level): 0.52
[5]
  N-stearoyl ethanolamine direction (relative to Veh): ↑
  N-stearoyl ethanolamine magnitude (x Veh level): 1.44
[6]
  N-linoleoyl serine Direction (relative to Veh): ↓
  N-linoleoyl serine Magnitude (x Veh level): 0.79
[7]
  N-arachidonoyl serine Direction (relative to Veh): ↓
  N-arachidonoyl serine Magnitude (x Veh level): 0.53
adult, eight regions
  changes in lipid levels that were decreases: 78
[8]
  2-arachidonoyl glycerol, Direction (relative to Veh): ↓
  2-arachidonoyl glycerol, Magnitude (x Veh level): 0.81 x Veh level
  2-linoleoyl glycerol Direction (relative to Veh): ↓
  2-linoleoyl glycerol Magnitude (x Veh level): 0.82 x Veh level
  N-arachidonoyl GABA Direction (relative to Veh): ↓
  N-arachidonoyl GABA Magnitude (x Veh level): 0.70 x Veh level
  N-arachidonoyl taurine Direction (relative to Veh): ↓
  N-arachidonoyl taurine Magnitude (x Veh level): 0.89 x Veh level
  N-docosahexaenoyl leucine Direction (relative to Veh): ↑
  N-docosahexaenoyl leucine Magnitude (x Veh level): 1.37 x Veh level
  N-docosahexaenoyl valine Direction (relative to Veh): ↑
  N-docosahexaenoyl valine Magnitude (x Veh level): 1.56 x Veh level
  N-oleoyl leucine Direction (relative to Veh): ↑
  N-oleoyl leucine Magnitude (x Veh level): 1.15 x Veh level
  N-oleoyl proline Direction (relative to Veh): ↑
  N-oleoyl proline Magnitude (x Veh level): 1.16 x Veh level
  N-oleoyl valine Direction (relative to Veh): ↑
  N-oleoyl valine Magnitude (x Veh level): 1.26 x Veh level
  N-palmitoyl leucine, Direction (relative to Veh): ↑
  N-palmitoyl leucine, Magnitude (x Veh level): 1.38 x Veh level
  N-palmitoyl phenylalanine Direction (relative to Veh): ↑
  N-palmitoyl phenylalanine Magnitude (x Veh level): 1.22 x Veh level
  N-palmitoyl proline Direction (relative to Veh): ↑
  N-palmitoyl proline Magnitude (x Veh level): 1.20 x Veh level
  N-palmitoyl tryptophan Direction (relative to Veh): ↓
  N-palmitoyl tryptophan Magnitude (x Veh level): 0.82 x Veh level
  N-palmitoyl valine Direction (relative to Veh): ↑
  N-palmitoyl valine Magnitude (x Veh level): 1.40 x Veh level
  N-stearoyl valine Direction (relative to Veh): ↑
  N-stearoyl valine Magnitude (x Veh level): 1.41 x Veh level
  PGE2 Direction (relative to Veh): ↑
  PGE2 Magnitude (x Veh level): 1.15 x Veh level
[9]
  2-arachidonoyl glycerol level: 3.96E-10
  2-linoleoyl glycerol level: 1.58E-10
  2-oleoyl glycerol level: 1.53E-09
  2-palmitoyl glycerol level: 2.82E-10
  6-ketoPGF1α level: 1.2E-11
  11-OH-THC level: BDL
  11-nor-9-carboxyTHC level: BDL
  Arachidonic acid level: 1.65E-09
  Cannabidiol level: BDL
  Linoleic acid level: 5.88E-10
  N- stearoyl valine level: 5.2E-13
  N-arachidonoyl serine level: 3.04E-12
  N-arachidonoyl taurine level: 1.88E-11
  N-arachidonoyl tryptophan level: BDL
  N-arachidonoyl tyrosine level: 6.37E-13
  N-docosahexaenoyl serine level: 1.42E-11
  N-docosahexaenoyl tyrosine level: 8.89E-13
  N-docosahexaenoyl valine level: 1.82E-13
  N-linoleoyl serine level: 2.61E-11
  N-linoleoyl tryptophan level: BDL
  N-linoleoyl tyrosine level: BDL
  N-nervonoyl valine level: BDL
  N-oleoyl proline level: 6.88E-13
  N-oleoyl serine level: 1.44E-10
  N-oleoyl tyrosine level: 5.15E-13
  N-oleoyl valine level: 5.41E-13
  N-palmitoyl proline level: 9.02E-13
  N-palmitoyl serine level: 3.95E-11
  N-palmitoyl tryptophan level: 2.02E-13
  N-palmitoyl tyrosine level: 8.2E-13
  N-palmitoyl valine level: 1.16E-12
  N-stearoyl proline level: 4.63E-13
  N-stearoyl serine level: 2.01E-11
  N-stearoyl tryptophan level: 2.84E-13
  N-stearoyl tyrosine level: 8.52E-14
  Oleic acid level: 1.63E-09
  PGE2 level: 2.93E-10
  PGF2α level: 2.4E-10
  PhosphoLEA level: 2.06E-11
  THC level: BDL
[10]
  2-arachidonoyl glycerol level, Mean: 2.23E-10
  2-linoleoyl glycerol level, Mean: 2.39E-10
  2-oleoyl glycerol level, Mean: 3.85E-09
  2-palmitoyl glycerol level, Mean: 8.83E-10
  6-ketoPGF1α level, Mean: 1.35E-11
  11-OH-THC level, Mean: BDL
  11-nor-9-carboxyTHC level, Mean: BDL
  Arachidonic acid level, Mean: 1.44E-10
  Cannabidiol level, Mean: BDL
  Linoleic acid level, Mean: 1.4E-10
  N- stearoyl valine level, Mean: 8.37E-14
  N-arachidonoyl GABA level, Mean: 3.67E-12
  N-arachidonoyl alanine level, Mean: 1.22E-13
  N-arachidonoyl dopamine level, Mean: BDL
  N-arachidonoyl ethanolamine level, Mean: 2.44E-11
